The record followed here is US8883782B2, “Spiro-tetracyclic ring compounds as beta-secretase modulators and methods of use” (Amgen Inc., priority 2010, dated 2014).

Assay [1] concerns the target Beta Secretase enzyme (BACE) (Homo sapiens, UniProt P56817). The experiment in a line: In vitro enzymatic BACE FRET (fluorescence resonance energy transfer) assay. In kind it is biochemical. The settings on record: average IC50, enzyme assay; read-out: BACE 1 FRET assay. In short, it runs like this: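 Acetate buffer (0.05 M, pH 4.2), 10% DMSO final, 100 uM nonionic detergent genapol. Substrate addition (50 nM FRET peptide) initiates; one-hour incubation; Tris raises pH to neutrality before fluorescence measurement.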

In assay [2] the test system is Aβ40 in conditioned medium of cells stably expressing Amyloid Precursor Protein (APP). Put plainly: In vitro BACE cell-based assay (Aβ40 in conditioned medium, sandwich ELISA). The settings on record: Homo sapiens, read-out: HEK cell assay. In outline: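 Conditioned medium from stably APP-expressing cells treated with compound dose series is assayed for Aβ40 by sandwich ELISA with time-resolved fluorescence detection. IC50 is calculated from percent inhibition of Aβ40 against compound concentration.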

The mark [3] stands for this setting: HEK293, average IC50, HEK cells.

Structures are written as SMILES. Like-named read-outs stand apart in the source and are kept apart here.

Beta Secretase enzyme (BACE), sequence (P56817 46-501, species assumed): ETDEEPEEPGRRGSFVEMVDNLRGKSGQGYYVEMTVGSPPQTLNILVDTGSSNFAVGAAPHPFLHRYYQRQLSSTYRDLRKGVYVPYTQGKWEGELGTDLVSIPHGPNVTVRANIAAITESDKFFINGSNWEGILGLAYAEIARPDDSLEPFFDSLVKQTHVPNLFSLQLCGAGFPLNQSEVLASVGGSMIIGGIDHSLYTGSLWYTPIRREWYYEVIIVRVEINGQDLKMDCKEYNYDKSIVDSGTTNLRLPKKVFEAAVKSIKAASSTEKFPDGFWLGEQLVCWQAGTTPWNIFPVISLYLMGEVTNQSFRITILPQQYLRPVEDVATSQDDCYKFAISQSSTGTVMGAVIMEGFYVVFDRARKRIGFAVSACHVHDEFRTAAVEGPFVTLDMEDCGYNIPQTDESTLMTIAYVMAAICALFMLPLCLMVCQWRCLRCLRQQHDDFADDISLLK

In the case of `N#Cc1cccc(-c2ccc3c(c2)[C@@]2(CSC(N)=N2)c2cc(C4=CCCOC4)cnc2O3)c1F` [Example 778, 3-((5S)-2′-amino-3-(5,6-dihydro-2H-pyran-3-yl)spiro[chromeno[2,3-b]pyridine-5,4′-[1,3]thiazol]-7-yl)-2-fluorobenzonitrile], the IC50 in assay [1] is 2.8 nM; in assay [2] (HEK293, average IC50), 54 nM.
Regarding `CC#Cc1cncc(-c2ccc3c(c2)[C@@]2(COC(N)=N2)c2cc(N4CCOCC4)cc(F)c2O3)c1` [Example 952, (4S)-4′-fluoro-2′-(4-morpholinyl)-7′-(5-(1-propyn-1-yl)-3-pyridinyl)spiro[1,3-oxazole-4,9′-xanthen]-2-amine], the IC50 in assay [1] stood at 0.6 nM; in assay [2] (setting [3]) it was 4 nM.
`Cc1cncc(-c2ccc3c(c2)[C@@]2(COC(N)=N2)c2cc(OCC4(C)COC4)c(F)cc2O3)c1` [Example 328, (4S)-3′-fluoro-2′-((3-methyl-3-oxetanyl)methoxy)-7′-(5-methyl-3-pyridinyl)spiro[1,3-oxazole-4,9′-xanthen]-2-amine]: the IC50 in assay [1] worked out at 23.6 nM; in assay [2] (HEK293, average IC50), 45.6 nM.
`CC(C)(C)COc1cc(F)c2c(c1)[C@@]1(COC(N)=N1)c1cc(-c3cncnc3)c(F)cc1O2` [Example 525, (4R)-7′-(2,2-dimethylpropoxy)-3′,5′-difluoro-2′-(5-pyrimidinyl)spiro[1,3-oxazole-4,9′-xanthen]-2-amine]: the IC50 in assay [1] came out at 159 nM; in assay [2] (setting [3]), 2390 nM.
With `COc1ccc(F)c(-c2ccc3c(c2)[C@@]2(COC(N)=N2)c2cc(C4=CCOCC4)cnc2O3)c1` [Example 323, (5S)-3-(3,6-dihydro-2H-pyran-4-yl)-7-(2-fluoro-5-methoxyphenyl)spiro[chromeno[2,3-b]pyridine-5,4′-[1,3]oxazol]-2′-amine], the IC50 in assay [1] turned out to be 1.4 nM; in assay [2] (HEK293, average IC50), 15.5 nM.
As for `NC1=N[C@@]2(CO1)c1cc(-c3cccnc3F)ccc1Oc1ncc(Br)cc12` [Example 1018, (5S)-3-bromo-7-(2-fluoro-3-pyridinyl)spiro[chromeno[2,3-b]pyridine-5,4′-[1,3]oxazol]-2′-amine], the IC50 came to 577 nM in assay [1] and 563 nM in assay [2] (HEK293, average IC50).
On to `NC1=N[C@@]2(CO1)c1cc(-c3cncc(F)c3)ccc1Oc1c2cc(N2CC[C@@H](F)C2)nc1F` [Example 921, (5S)-1-fluoro-7-(5-fluoro-3-pyridinyl)-3-((3R)-3-fluoro-1-pyrrolidinyl)spiro[chromeno[2,3-c]pyridine-5,4′-[1,3]oxazol]-2′-amine], for which the IC50 in assay [1] turned out to be 0.5 nM; in assay [2] (setting [3]) it was 6 nM.
In the case of `NC1=N[C@@]2(CS1)c1cc(-c3cccnc3F)ccc1Oc1c2cc(-c2ccncc2)nc1F` [Example 1027, (5S)-1-fluoro-7-(2-fluoro-3-pyridinyl)-3-(4-pyridinyl)spiro[chromeno[2,3-c]pyridine-5,4′-[1,3]thiazol]-2′-amine], the IC50 in assay [1] came out at 0.4 nM; in assay [2] (HEK293, average IC50) it was 14 nM.
In the same order, the values of `NC1=N[C@@]2(CO1)c1cc(-c3cncc(F)c3)ccc1Oc1c(F)cc(N3CCOCC3)cc12` [Example 277, (4S)-4′-fluoro-7′-(5-fluoro-3-pyridinyl)-2′-(4-morpholinyl)spiro[1,3-oxazole-4,9′-xanthen]-2-amine] are 1.5 nM and 6.4 nM.
Regarding `NC1=N[C@@]2(CO1)c1cc(-c3cncc(N4CC[C@@H](F)C4)c3)ccc1Oc1cnc(Cl)cc12` [Example 429, (5S)-3-chloro-7-(5-((3R)-3-fluoro-1-pyrrolidinyl)-3-pyridinyl)spiro[chromeno[2,3-c]pyridine-5,4′-[1,3]oxazol]-2′-amine], the IC50 in assay [1] came out at 3230 nM; in assay [2] (setting [3]) it was 2210 nM.
Turning to `CC1(C#Cc2cnc3c(c2)[C@]2(COC(N)=N2)c2cc(-c4cnccc4F)ccc2O3)COC1` [Example 104, (S)-7-(4-fluoropyridin-3-yl)-3-((3-methyloxetan-3-yl)ethynyl)-5′H-spiro[chromeno[2,3-b]pyridine-5,4′-oxazol]-2′-amine], the IC50 was found to be 1.1 nM in assay [1] and 12 nM in assay [2] (HEK293, average IC50).
In the same order, the values of `NC1=N[C@@]2(CS1)c1cc(-c3cnccc3F)ccc1Oc1ncc(C3=CCOCC3)cc12` [Example 768, (5S)-3-(3,6-dihydro-2H-pyran-4-yl)-7-(4-fluoro-3-pyridinyl)spiro[chromeno[2,3-b]pyridine-5,4′-[1,3]thiazol]-2′-amine] are 1.2 nM and 16 nM.
Consider `NC1=N[C@@]2(CS1)c1cc(-c3cccnc3)ccc1Oc1c(F)cc(C3=CCOCC3)cc12` [Example 796, (4S)-2′-(3,6-dihydro-2H-pyran-4-yl)-4′-fluoro-7′-(3-pyridinyl)spiro[1,3-thiazole-4,9′-xanthen]-2-amine], for which the IC50 was 0.5 nM in assay [1] and 8 nM in assay [2] (HEK293, average IC50).
Regarding `CC(C)(C)C#Cc1ccc2c(c1)[C@]1(COC(N)=N1)c1cc(-c3cncnc3)c(F)cc1O2` [Example 497, (4R)-7′-(3,3-dimethyl-1-butyn-1-yl)-3′-fluoro-2′-(5-pyrimidinyl)spiro[1,3-oxazole-4,9′-xanthen]-2-amine], the IC50 in assay [1] turned out to be 2.5 nM; in assay [2] (setting [3]), 37.2 nM.
Taken in the same sequence, the figures for `CC1(C#Cc2cnc3c(c2)[C@]2(COC(N)=N2)c2cc(-c4cnccc4F)c(F)cc2O3)COC1` [Example 621, (5S)-8-fluoro-7-(4-fluoro-3-pyridinyl)-3-((3-methyl-3-oxetanyl)ethynyl)spiro[chromeno[2,3-b]pyridine-5,4′-[1,3]oxazol]-2′-amine] were 0.6 nM and 5 nM.
For the molecule `COc1cccc(-c2ccc3c(c2)[C@@]2(COC(N)=N2)c2cc(C4=CCOCC4)cnc2O3)c1` [Example 322, (5S)-3-(3,6-dihydro-2H-pyran-4-yl)-7-(3-methoxyphenyl)spiro[chromeno[2,3-b]pyridine-5,4′-[1,3]oxazol]-2′-amine], the IC50 in assay [1] is 3.6 nM; in assay [2] (HEK293, average IC50), 26.1 nM.
Regarding `NC1=N[C@]2(CS1)c1cc(-c3cccnc3)c(F)cc1Oc1c(F)cc(C3=CCCOC3)cc12` [Example 884, (4R)-7′-(5,6-dihydro-2H-pyran-3-yl)-3′,5′-difluoro-2′-(3-pyridinyl)spiro[1,3-thiazole-4,9′-xanthen]-2-amine], the values for the IC50 in assay [1] and in assay [2] (setting [3]) were 162 nM and at least 10000 nM, respectively.
In the case of `NC1=N[C@]2(CO1)c1cc(-c3cccc(Cl)c3)ccc1Oc1cnc(C3=CCOCC3)cc12` [Example 234, (5R)-7-(3-chlorophenyl)-3-(3,6-dihydro-2H-pyran-4-yl)spiro[chromeno[2,3-c]pyridine-5,4′-[1,3]oxazol]-2′-amine], the IC50 was determined as 490 nM in assay [1] and 4280 nM in assay [2] (HEK293, average IC50).
Take `NC1=NC2(CS1)c1cc(-c3cccnc3F)ccc1Oc1c2cc(C2=CCOCC2)nc1F` (stereo not drawn) [Example 638, 3-(3,6-dihydro-2H-pyran-4-yl)-1-fluoro-7-(2-fluoro-3-pyridinyl)spiro[chromeno[2,3-c]pyridine-5,4′-[1,3]thiazol]-2′-amine]: the IC50 in assay [1] stood at 0.6 nM; in assay [2] (setting [3]) it was 4 nM.
With `NC1=N[C@@]2(CO1)c1cc(-c3cccnc3)ccc1Oc1c2cc(C2=CCOCC2)nc1F` [Example 639, (5S)-3-(3,6-dihydro-2H-pyran-4-yl)-1-fluoro-7-(3-pyridinyl)spiro[chromeno[2,3-c]pyridine-5,4′-[1,3]oxazol]-2′-amine], the IC50 in assay [1] came out at 0.4 nM; in assay [2] (setting [3]), 3 nM.
In the case of `COc1nc(C2=CCCOC2)cc2c1Oc1ccc(-c3cccnc3)cc1[C@@]21COC(N)=N1` [Example 841, (5S)-3-(5,6-dihydro-2H-pyran-3-yl)-1-methoxy-7-(3-pyridinyl)spiro[chromeno[2,3-c]pyridine-5,4′-[1,3]oxazol]-2′-amine], the IC50 is 1.2 nM in assay [1] and 6 nM in assay [2] (HEK293, average IC50).
Turning to `COCC1SC(N)=N[C@]12c1cc(-c3cccnc3F)ccc1Oc1cnc(-c3ccnc(F)c3)cc12` (stereo partly drawn) [Example 722, (5S)-7-(2-fluoro-3-pyridinyl)-3-(2-fluoro-4-pyridinyl)-5′-(methoxymethyl)spiro[chromeno[2,3-c]pyridine-5,4′-[1,3]thiazol]-2′-amine], the IC50 in assay [1] was found to be 335 nM; in assay [2] (setting [3]) it was 5930 nM.
For `COc1cncc(-c2ccc3c(c2)[C@@]2(COC(N)=N2)c2cc(-c4ncccn4)ncc2O3)c1` [Example 687, (5S)-7-(5-methoxy-3-pyridinyl)-3-(2-pyrimidinyl)spiro[chromeno[2,3-c]pyridine-5,4′-[1,3]oxazol]-2′-amine], the IC50 in assay [1] was found to be 80.4 nM; in assay [2] (setting [3]) it was 853 nM.
In the case of `NC1=N[C@]2(CS1)c1cc(-c3cccnc3)ccc1Oc1ncc(C3=CCOCC3)cc12` [Example 585, (5R)-3-(3,6-dihydro-2H-pyran-4-yl)-7-(3-pyridinyl)spiro[chromeno[2,3-b]pyridine-5,4′-[1,3]thiazol]-2′-amine], the figures for the IC50 in assay [1] and in assay [2] (setting [3]) were 2.5 nM and 18.1 nM, respectively.
Take `CC#Cc1cncc(-c2cnc3c(c2)[C@]2(COC(N)=N2)c2cc(-c4cccnc4F)ccc2O3)c1` [Example 777, (5S)-7-(2-fluoro-3-pyridinyl)-3-(5-(1-propyn-1-yl)-3-pyridinyl)spiro[chromeno[2,3-b]pyridine-5,4′-[1,3]oxazol]-2′-amine]: the IC50 stood at 106 nM in assay [1] and 3510 nM in assay [2] (HEK293, average IC50).
Turning to `NC1=N[C@@]2(CO1)c1cc(-c3cccnc3F)ccc1Oc1ncc(C#CC3(O)COC3)cc12` [Example 519, 3-(((5S)-2′-amino-7-(2-fluoro-3-pyridinyl)spiro[chromeno[2,3-b]pyridine-5,4′-[1,3]oxazol]-3-yl)ethynyl)-3-oxetanol], the IC50 amounted to 3.2 nM in assay [1] and 29.7 nM in assay [2] (setting [3]).
In the same order, the values of `NC1=N[C@@]2(CO1)c1cc(-c3cccnc3F)ccc1Oc1cnc(N3CCCC(F)(F)C3)cc12` [Example 430, (5S)-3-(3,3-difluoro-1-piperidinyl)-7-(2-fluoro-3-pyridinyl)spiro[chromeno[2,3-c]pyridine-5,4′-[1,3]oxazol]-2′-amine] are 0.6 nM and 6.9 nM.
